From patent US20210115104A1, “AMYLIN ANALOGUES” (Zealand Pharma A/S, priority 2015, published 2021) come the findings set out here.

pEC50: −log10 of the molar value. *1 amine or outer side, *2 acyl side, *3 side chain or, on linkers, in order; H or OH if unused. Where a SMILES comes first, the peptide text is derived from it. Bridges are numbered along the chain shown (N, C = ends). [ ]: non-standard residue; d: D form. The star is where a group is joined. C20 diacid = O=C(O)CCCCCCCCCCCCCCCCCCC(=O)*; γGlu = O=C(O)[C@H](CCC(=O)[*:2])N[*:1]; Hyp = O=C(O)[C@@H]1C[C@@H](O)CN1; NMeI = CC[C@H](C)[C@H](NC)C(=O)O; Aad = N[C@@H](CCCC(=O)O)C(=O)O; Orn = NCCC[C@H](N)C(=O)O; Sar = CNCC(=O)O

The target of assay [1] is T1, human calcitonin receptor (hCTR2) (Homo sapiens, UniProt P30988).
T1 construct: expressed in transfected cells
T1 sequence (P30988 25-474): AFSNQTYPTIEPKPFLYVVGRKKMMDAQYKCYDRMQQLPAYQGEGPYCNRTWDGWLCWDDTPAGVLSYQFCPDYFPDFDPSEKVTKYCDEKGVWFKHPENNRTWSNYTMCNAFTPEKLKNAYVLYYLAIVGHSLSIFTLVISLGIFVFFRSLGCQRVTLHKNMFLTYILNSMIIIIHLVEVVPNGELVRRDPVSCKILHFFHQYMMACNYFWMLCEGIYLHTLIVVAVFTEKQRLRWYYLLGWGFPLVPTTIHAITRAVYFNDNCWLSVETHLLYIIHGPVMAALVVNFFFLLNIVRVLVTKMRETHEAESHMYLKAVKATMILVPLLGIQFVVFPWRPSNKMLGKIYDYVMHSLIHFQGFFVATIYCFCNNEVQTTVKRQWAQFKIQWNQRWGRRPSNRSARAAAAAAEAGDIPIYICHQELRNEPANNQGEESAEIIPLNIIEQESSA
Description: hCTR2 cAMP assay (AlphaScreen) in COS7 cells. The assay is classed as cell-based. The following applies: cAMP induction, COS7 cells expressing hCTR2; Table 1; read-out: hCTR2 EC50. Summed up:
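cAMP induction, read by AlphaScreen after lysis, gives EC50 values via 4PL curve fitting. Peptides were applied at rising concentrations for 15 min at 37 °C, with IBMX and 0.1% casein in HEPES-buffered Tyrode pH 7.4, to COS7 cells (no endogenous RAMPs) stably expressing human CTR2.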

Assay [2] addresses T2, human amylin receptor 3 (hAMYR3), hCTR2 co-expressed with hRAMP3 (Homo sapiens, UniProt O60896+P30988).
T2 construct: expressed in transfected cells
T2 sequence (P30988 25-474): T1 sequence (P30988 25-474)
T2 sequence (O60896 24-148 partner): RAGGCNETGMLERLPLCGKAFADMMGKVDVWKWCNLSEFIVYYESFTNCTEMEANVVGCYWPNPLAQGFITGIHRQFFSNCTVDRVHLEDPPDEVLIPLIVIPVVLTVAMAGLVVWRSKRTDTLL
Description: hAMYR3 cAMP assay (AlphaScreen) in COS7 cells. The assay is classed as cell-based. The following applies: cAMP induction, COS7 cells expressing hAMYR3; Table 1; read-out: hAMYR3 EC50. An outline of the steps: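 EC50 values derive from 4PL curve fits of cAMP (AlphaScreen) in lysates of RAMP-naive COS7 cells stably carrying hCTR2 plus hRAMP3. Peptide dilution series were applied for 15 min at 37 °C in pH 7.4 Tyrode buffer containing 100 µM IBMX and 0.1% casein.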

For `CC[C@H](C)[C@@H](C(=O)N[C@@H](CC(C)C)C(=O)N[C@@H](CO)C(=O)N[C@@H](CO)C(=O)N[C@H](C(=O)N[C@@H](CCC(=O)O)C(=O)N[C@H](C(=O)NCC(=O)N[C@@H](CO)C(=O)N[C@@H](CC(N)=O)C(=O)N[C@H](C(=O)N1CCC[C@H]1C(N)=O)[C@@H](C)O)C(C)C)[C@@H](C)O)N(C)C(=O)[C@H](C)NC(=O)CN(C)C(=O)[C@H](Cc1ccccc1)NC(=O)[C@H](CO)NC(=O)[C@H](CO)NC(=O)[C@H](CCCNC(=N)N)NC(=O)[C@H](CCC(N)=O)NC(=O)[C@H](CC(C)C)NC(=O)[C@H](Cc1ccccc1)NC(=O)[C@H](Cc1c[nH]cn1)NC(=O)[C@H](C)NC(=O)[C@H](CC(C)C)NC(=O)[C@H](CCCNC(=N)N)NC(=O)[C@H](CCC(=O)O)NC(=O)[C@@H](NC(=O)[C@H](C)NC(=O)[C@@H]1CSSC[C@H](NC(=O)[C@H](CCCNC(=N)N)NC(=O)CC[C@H](NC(=O)CCCCCCCCCCCCCCCCCCC(=O)O)C(=O)O)C(=O)N[C@@H](CC(N)=O)C(=O)N[C@@H]([C@@H](C)O)C(=O)N[C@@H](C)C(=O)N[C@@H]([C@@H](C)O)C(=O)N1)[C@@H](C)O` [Compound 62, [19CD]-isoGlu-R-C( )-NTAT-C( )-ATERLAHFLQRSSF-Gly(Me)-A-Ile(Me)-LSSTEVGSNTP-NH2] ({C20 diacid-γGlu}-RCNTATCATERLAHFLQRSSF[Sar]A[NMeI]LSSTEVGSNTP-NH2; disulfide 2-7), the pEC50 in assay [1] is 9.74; in assay [2], 9.66.
Consider `CC[C@H](C)[C@@H](C(=O)N[C@@H](CC(C)C)C(=O)N[C@@H](CO)C(=O)N[C@@H](CO)C(=O)N[C@H](C(=O)N[C@@H](CCC(=O)O)C(=O)N[C@H](C(=O)NCC(=O)N[C@@H](CO)C(=O)N[C@@H](CO)C(=O)N[C@H](C(=O)N1CCC[C@H]1C(N)=O)[C@@H](C)O)C(C)C)[C@@H](C)O)N(C)C(=O)[C@H](C)NC(=O)CN(C)C(=O)[C@H](Cc1ccccc1)NC(=O)[C@H](CO)NC(=O)[C@H](CO)NC(=O)[C@H](CCCNC(=N)N)NC(=O)[C@@H](NC(=O)[C@H](CC(C)C)NC(=O)[C@H](Cc1ccccc1)NC(=O)[C@H](Cc1c[nH]cn1)NC(=O)[C@H](C)NC(=O)[C@H](CC(C)C)NC(=O)[C@H](CCCNC(=N)N)NC(=O)[C@H](CCC(=O)O)NC(=O)[C@@H](NC(=O)[C@H](C)NC(=O)[C@@H]1CSSC[C@H](NC(=O)[C@H](CCCNC(=N)N)NC(=O)CC[C@H](NC(=O)CCCCCCCCCCCCCCCCCCC(=O)O)C(=O)O)C(=O)NCC(=O)N[C@@H]([C@@H](C)O)C(=O)N[C@@H](C)C(=O)N[C@@H]([C@@H](C)O)C(=O)N1)[C@@H](C)O)[C@@H](C)O` [Compound 46, [19CD]-isoGlu-R-C( )-GTAT-C( )-ATERLAHFLTRSSF-Gly(Me)-A-Ile(Me)-LSSTEVGSSTP-NH2] ({C20 diacid-γGlu}-RCGTATCATERLAHFLTRSSF[Sar]A[NMeI]LSSTEVGSSTP-NH2; disulfide 2-7), for which the figures for the negative logarithm of the EC50 (pEC50) in assay [1] and in assay [2] were 10.00 and 9.85, respectively.
The like results for `CC[C@H](C)[C@@H](C(=O)N[C@@H](CC(C)C)C(=O)N[C@@H](CO)C(=O)N[C@@H](CO)C(=O)N[C@H](C(=O)N[C@@H](CCC(=O)O)C(=O)N[C@H](C(=O)NCC(=O)N[C@@H](CO)C(=O)N[C@@H](CCC(=O)O)C(=O)N[C@H](C(=O)N1CCC[C@H]1C(N)=O)[C@@H](C)O)C(C)C)[C@@H](C)O)N(C)C(=O)[C@H](C)NC(=O)CN(C)C(=O)[C@H](Cc1ccccc1)NC(=O)[C@H](CO)NC(=O)[C@H](CO)NC(=O)[C@H](CCCNC(=N)N)NC(=O)[C@@H](NC(=O)[C@H](CC(C)C)NC(=O)[C@H](Cc1ccccc1)NC(=O)[C@H](Cc1c[nH]cn1)NC(=O)[C@H](C)NC(=O)[C@H](CC(C)C)NC(=O)[C@H](CCCNC(=N)N)NC(=O)[C@H](CCC(N)=O)NC(=O)[C@@H](NC(=O)[C@H](C)NC(=O)[C@@H]1CSSC[C@H](NC(=O)[C@H](CCCNC(=N)N)NC(=O)CC[C@H](NC(=O)CCCCCCCCCCCCCCCCCCC(=O)O)C(=O)O)C(=O)N[C@@H](CC(N)=O)C(=O)N[C@@H]([C@@H](C)O)C(=O)N[C@@H](C)C(=O)N[C@@H]([C@@H](C)O)C(=O)N1)[C@@H](C)O)C(C)C` [Compound 24, [19CD]-isoGlu-R-C( )-NTAT-C( )-ATQRLAHFLVRSSF-Gly(Me)-A-Ile(Me)-LSSTEVGSETP-NH2] ({C20 diacid-γGlu}-RCNTATCATQRLAHFLVRSSF[Sar]A[NMeI]LSSTEVGSETP-NH2; disulfide 2-7) were, in that order, 10.07 and 9.72.
As to `CC[C@H](C)[C@@H](C(=O)N[C@@H](CC(C)C)C(=O)N[C@@H](CO)C(=O)N[C@@H](CO)C(=O)N[C@H](C(=O)N[C@@H](CCC(=O)O)C(=O)N[C@H](C(=O)NCC(=O)N[C@@H](CO)C(=O)N[C@@H](Cc1ccccc1)C(=O)N[C@H](C(=O)N1CCC[C@H]1C(N)=O)[C@@H](C)O)C(C)C)[C@@H](C)O)N(C)C(=O)[C@H](C)NC(=O)CN(C)C(=O)[C@H](Cc1ccccc1)NC(=O)[C@H](CO)NC(=O)[C@H](CO)NC(=O)[C@H](CCCNC(=N)N)NC(=O)[C@H](CCC(N)=O)NC(=O)[C@H](CC(C)C)NC(=O)[C@H](Cc1ccccc1)NC(=O)[C@H](Cc1c[nH]cn1)NC(=O)[C@H](C)NC(=O)[C@H](CC(C)C)NC(=O)[C@H](CCCNC(=N)N)NC(=O)[C@H](CCC(=O)O)NC(=O)[C@@H](NC(=O)[C@H](C)NC(=O)[C@@H]1CSSC[C@H](NC(=O)[C@H](CCCNC(=N)N)NC(=O)CC[C@H](NC(=O)CCCCCCCCCCCCCCCCCCC(=O)O)C(=O)O)C(=O)NCC(=O)N[C@@H]([C@@H](C)O)C(=O)N[C@@H](C)C(=O)N[C@@H]([C@@H](C)O)C(=O)N1)[C@@H](C)O` [Compound 39, [19CD]-isoGlu-R-C( )-GTAT-C( )-ATERLAHFLQRSSF-Gly(Me)-A-Ile(Me)-LSSTEVGSFTP-NH2] ({C20 diacid-γGlu}-RCGTATCATERLAHFLQRSSF[Sar]A[NMeI]LSSTEVGSFTP-NH2; disulfide 2-7), the pEC50 is 9.80 in assay [1] and 9.66 in assay [2].
As to `CC[C@H](C)[C@@H](C(=O)N[C@@H](CC(C)C)C(=O)N[C@@H](CO)C(=O)N[C@@H](CO)C(=O)N[C@H](C(=O)N[C@@H](CCC(=O)O)C(=O)N[C@H](C(=O)NCC(=O)N[C@@H](CO)C(=O)N[C@@H](CO)C(=O)N[C@H](C(=O)N1CCC[C@H]1C(N)=O)[C@@H](C)O)C(C)C)[C@@H](C)O)N(C)C(=O)[C@H](C)NC(=O)CN(C)C(=O)[C@H](Cc1ccccc1)NC(=O)[C@H](CO)NC(=O)[C@H](CO)NC(=O)[C@H](CCCNC(=N)N)NC(=O)[C@H](CCC(N)=O)NC(=O)[C@H](CC(C)C)NC(=O)[C@H](Cc1ccccc1)NC(=O)[C@H](Cc1c[nH]cn1)NC(=O)[C@H](C)NC(=O)[C@H](CC(C)C)NC(=O)[C@H](CCCNC(=N)N)NC(=O)[C@H](CCC(N)=O)NC(=O)[C@@H](NC(=O)[C@H](C)NC(=O)[C@@H]1CSSC[C@H](NC(=O)[C@H](CCCNC(=N)N)NC(=O)CC[C@H](NC(=O)CCCCCCCCCCCCCCCCCCC(=O)O)C(=O)O)C(=O)N[C@@H](CC(N)=O)C(=O)N[C@@H]([C@@H](C)O)C(=O)N[C@@H](C)C(=O)N[C@@H]([C@@H](C)O)C(=O)N1)[C@@H](C)O` [Compound 85, [19CD]-isoGlu-R-C( )-NTAT-C( )-ATQRLAHFLQRSSF-Gly(Me)-A-Ile(Me)-LSSTEVGSSTP-NH2] ({C20 diacid-γGlu}-RCNTATCATQRLAHFLQRSSF[Sar]A[NMeI]LSSTEVGSSTP-NH2; disulfide 2-7), the pEC50 was 10.00 in assay [1] and 9.85 in assay [2].
`CC[C@H](C)[C@@H](C(=O)N[C@@H](CC(C)C)C(=O)N[C@@H](CO)C(=O)N[C@@H](CO)C(=O)N[C@H](C(=O)N[C@@H](CCC(=O)O)C(=O)N[C@H](C(=O)NCC(=O)N[C@@H](CO)C(=O)N[C@@H](CCCN)C(=O)N[C@H](C(=O)N1C[C@H](O)C[C@H]1C(N)=O)[C@@H](C)O)C(C)C)[C@@H](C)O)N(C)C(=O)[C@H](C)NC(=O)CN(C)C(=O)[C@H](Cc1ccccc1)NC(=O)[C@H](CO)NC(=O)[C@H](CO)NC(=O)[C@H](CCCNC(=N)N)NC(=O)[C@@H](NC(=O)[C@H](CC(C)C)NC(=O)[C@H](Cc1ccccc1)NC(=O)[C@H](CCCC(=O)O)NC(=O)[C@H](C)NC(=O)[C@H](CC(C)C)NC(=O)[C@H](CCCNC(=N)N)NC(=O)[C@H](CCC(=O)O)NC(=O)[C@@H](NC(=O)[C@H](C)NC(=O)[C@@H]1CSSC[C@H](NC(=O)[C@H](CCCNC(=N)N)NC(=O)CC[C@H](NC(=O)CCCCCCCCCCCCCCCCCCC(=O)O)C(=O)O)C(=O)NCC(=O)N[C@@H]([C@@H](C)O)C(=O)N[C@@H](C)C(=O)N[C@@H]([C@@H](C)O)C(=O)N1)[C@@H](C)O)[C@@H](C)O` [Compound 44, [19CD]-isoGlu-R-C( )-GTAT-C( )-ATERLA-Aad-FLTRSSF-Gly(Me)-A-Ile(Me)-LSSTEVGS-Orn-T-Hyp-NH2] ({C20 diacid-γGlu}-RCGTATCATERLA[Aad]FLTRSSF[Sar]A[NMeI]LSSTEVGS[Orn]T[Hyp]-NH2; disulfide 2-7): the negative logarithm of the EC50 (pEC50) in assay [1] is 9.70; in assay [2] it was 9.52.
